Key:
[1] = molecular target: T1, 5-hydroxytryptamine receptor 3A (Homo sapiens) (UniProt P46098); assay: Binding affinity to recombinant 5-HT3 receptor (unknown origin) at 10 uM after 1.5 hrs by radioligand displacement assay
T1 sequence (whole entry): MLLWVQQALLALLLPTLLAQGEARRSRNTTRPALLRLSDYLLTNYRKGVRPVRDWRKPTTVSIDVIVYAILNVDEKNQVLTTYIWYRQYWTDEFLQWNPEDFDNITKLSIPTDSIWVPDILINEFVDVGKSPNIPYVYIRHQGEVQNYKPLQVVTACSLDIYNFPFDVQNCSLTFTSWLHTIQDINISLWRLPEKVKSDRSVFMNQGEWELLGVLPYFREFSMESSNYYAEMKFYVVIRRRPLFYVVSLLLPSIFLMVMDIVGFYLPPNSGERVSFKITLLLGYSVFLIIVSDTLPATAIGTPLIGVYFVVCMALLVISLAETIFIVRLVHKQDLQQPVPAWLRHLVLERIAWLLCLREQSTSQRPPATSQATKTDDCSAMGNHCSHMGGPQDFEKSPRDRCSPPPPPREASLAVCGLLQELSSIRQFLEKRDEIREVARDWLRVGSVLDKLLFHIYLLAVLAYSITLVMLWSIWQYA

[2] = molecular target: 5-hydroxytryptamine receptor 2B (Homo sapiens, UniProt P41595); assay: Binding affinity to recombinant 5-HT2B receptor (unknown origin) after 1.5 hrs by radioligand displacement assay
5-hydroxytryptamine receptor 2B, sequence (P41595 whole entry): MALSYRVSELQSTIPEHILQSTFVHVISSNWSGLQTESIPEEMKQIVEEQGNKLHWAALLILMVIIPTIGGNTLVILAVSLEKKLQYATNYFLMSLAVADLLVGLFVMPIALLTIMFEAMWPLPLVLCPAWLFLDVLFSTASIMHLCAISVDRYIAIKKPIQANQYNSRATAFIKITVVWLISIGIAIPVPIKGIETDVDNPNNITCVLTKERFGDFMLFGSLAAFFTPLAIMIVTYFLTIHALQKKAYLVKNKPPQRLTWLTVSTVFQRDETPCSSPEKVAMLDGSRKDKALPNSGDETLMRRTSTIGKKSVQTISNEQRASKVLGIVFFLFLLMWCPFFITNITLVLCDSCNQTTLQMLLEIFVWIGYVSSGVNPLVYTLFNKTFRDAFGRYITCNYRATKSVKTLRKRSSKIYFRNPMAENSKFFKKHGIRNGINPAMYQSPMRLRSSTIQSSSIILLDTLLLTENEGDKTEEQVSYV

[3] = Plasma concentration in Sprague-Dawley rat at 10 mg/kg, po after 2 hrs by LC-MS/MS analysis; type: ADME, organism-based
[4] = molecular target: 5-hydroxytryptamine receptor 6 (Homo sapiens, UniProt P50406); assay: Binding affinity to recombinant 5-HT6 receptor (unknown origin) at 10 uM after 1.5 hrs by radioligand displacement assay
5-hydroxytryptamine receptor 6, sequence (P50406 whole entry): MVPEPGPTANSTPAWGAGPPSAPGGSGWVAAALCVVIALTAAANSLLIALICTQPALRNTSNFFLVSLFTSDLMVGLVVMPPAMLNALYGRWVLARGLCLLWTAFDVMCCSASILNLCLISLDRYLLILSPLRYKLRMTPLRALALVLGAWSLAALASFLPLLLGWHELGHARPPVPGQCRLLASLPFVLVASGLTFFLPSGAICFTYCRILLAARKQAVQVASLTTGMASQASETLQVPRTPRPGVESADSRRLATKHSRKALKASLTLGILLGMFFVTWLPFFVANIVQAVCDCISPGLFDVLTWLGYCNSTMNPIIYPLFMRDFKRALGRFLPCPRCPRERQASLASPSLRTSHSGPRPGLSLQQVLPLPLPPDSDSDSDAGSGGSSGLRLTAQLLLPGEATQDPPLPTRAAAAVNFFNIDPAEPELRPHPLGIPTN

[5] = Clearance in Sprague-Dawley rat at 10 mg/kg, iv by LC-MS/MS analysis; type: ADME, organism-based; conditions: in vivo
[6] = molecular target: T2, 5-hydroxytryptamine receptor 7 (Homo sapiens, UniProt P34969); assay: Displacement of [3H]LSD from 5-HT7 receptor (unknown origin) expressed in CHO-K1 cells by liquid scintillation counting method; type: cell-based
T2 sequence (P34969 whole entry): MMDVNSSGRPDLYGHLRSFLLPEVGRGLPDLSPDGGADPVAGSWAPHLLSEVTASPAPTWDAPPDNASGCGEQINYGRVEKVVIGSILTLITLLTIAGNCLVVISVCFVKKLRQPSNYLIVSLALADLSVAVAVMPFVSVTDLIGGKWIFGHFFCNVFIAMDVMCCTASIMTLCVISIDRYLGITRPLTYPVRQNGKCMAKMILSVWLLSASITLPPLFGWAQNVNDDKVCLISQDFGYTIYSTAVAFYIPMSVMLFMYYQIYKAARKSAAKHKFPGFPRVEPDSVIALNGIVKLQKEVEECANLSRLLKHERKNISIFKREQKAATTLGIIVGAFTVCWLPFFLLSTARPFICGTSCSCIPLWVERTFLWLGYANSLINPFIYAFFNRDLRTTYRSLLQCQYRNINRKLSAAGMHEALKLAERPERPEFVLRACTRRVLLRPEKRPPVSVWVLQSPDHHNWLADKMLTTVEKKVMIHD

[7] = Drug uptake in Sprague-Dawley rat brain at 10 mg/kg, iv after 2 hrs by LC-MS/MS analysis; type: ADME, organism-based; conditions: read-out: Drug uptake
[8] = molecular target: 5-hydroxytryptamine receptor 5A (Homo sapiens, UniProt P47898); assay: Binding affinity to recombinant 5-HT5 receptor (unknown origin) at 10 uM after 1.5 hrs by radioligand displacement assay
5-hydroxytryptamine receptor 5A, sequence (P47898 whole entry): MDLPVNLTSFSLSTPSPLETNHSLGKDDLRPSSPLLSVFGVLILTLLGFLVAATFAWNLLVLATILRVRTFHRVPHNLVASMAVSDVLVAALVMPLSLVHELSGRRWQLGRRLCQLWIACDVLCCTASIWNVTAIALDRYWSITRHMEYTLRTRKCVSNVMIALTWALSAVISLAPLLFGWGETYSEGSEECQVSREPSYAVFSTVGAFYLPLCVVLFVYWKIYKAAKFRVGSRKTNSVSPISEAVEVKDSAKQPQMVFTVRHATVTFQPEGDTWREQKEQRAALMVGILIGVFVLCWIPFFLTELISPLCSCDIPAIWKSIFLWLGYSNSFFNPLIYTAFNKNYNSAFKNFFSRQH

[9] = molecular target: T2, 5-hydroxytryptamine receptor 7; assay: Agonist activity at human 5-HT7 receptor expressed in HEK293 cells assessed as increase in cAMP level at 12.5 uM by fluorescence analysis relative to 5-CT; type: functional, cell-based
[10] = molecular target: T2, 5-hydroxytryptamine receptor 7; assay: Binding affinity to recombinant 5-HT7 receptor (unknown origin) after 1.5 hrs by radioligand displacement assay
[11] = molecular target: 5-hydroxytryptamine receptor 1B (Homo sapiens, UniProt P28222); assay: Binding affinity to recombinant 5-HT1B receptor (unknown origin) after 1.5 hrs by radioligand displacement assay
5-hydroxytryptamine receptor 1B, sequence (P28222 whole entry): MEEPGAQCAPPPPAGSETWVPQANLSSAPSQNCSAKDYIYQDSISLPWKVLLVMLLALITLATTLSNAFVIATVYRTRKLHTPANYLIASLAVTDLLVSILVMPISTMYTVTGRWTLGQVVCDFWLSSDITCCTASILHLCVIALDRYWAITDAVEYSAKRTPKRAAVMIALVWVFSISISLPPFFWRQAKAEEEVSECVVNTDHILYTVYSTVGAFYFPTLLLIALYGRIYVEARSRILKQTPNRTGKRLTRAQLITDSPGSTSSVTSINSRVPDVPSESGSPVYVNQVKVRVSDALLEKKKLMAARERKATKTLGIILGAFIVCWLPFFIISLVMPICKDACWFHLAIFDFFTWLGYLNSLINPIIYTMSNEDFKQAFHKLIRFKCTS

[12] = AUC (0 to last) in Sprague-Dawley rat at 10 mg/kg, po by LC-MS/MS analysis; type: ADME, organism-based; design: dose 10 mg/kg, time 0 - last, route oral; conditions: in vivo
[13] = Ratio of drug uptake in brain to plasma of Sprague-Dawley rat at 10 mg/kg, iv after 2 hrs by LC-MS/MS analysis; type: ADME, organism-based; conditions: read-out: BPR
[14] = Ratio of drug uptake in brain to plasma of Sprague-Dawley rat at 10 mg/kg, po after 2 hrs by LC-MS/MS analysis; type: ADME, organism-based; conditions: read-out: BPR
[15] = molecular target: 5-hydroxytryptamine receptor 1D (Homo sapiens, UniProt P28221); assay: Binding affinity to recombinant 5-HT1D receptor (unknown origin) after 1.5 hrs by radioligand displacement assay
5-hydroxytryptamine receptor 1D, sequence (P28221 whole entry): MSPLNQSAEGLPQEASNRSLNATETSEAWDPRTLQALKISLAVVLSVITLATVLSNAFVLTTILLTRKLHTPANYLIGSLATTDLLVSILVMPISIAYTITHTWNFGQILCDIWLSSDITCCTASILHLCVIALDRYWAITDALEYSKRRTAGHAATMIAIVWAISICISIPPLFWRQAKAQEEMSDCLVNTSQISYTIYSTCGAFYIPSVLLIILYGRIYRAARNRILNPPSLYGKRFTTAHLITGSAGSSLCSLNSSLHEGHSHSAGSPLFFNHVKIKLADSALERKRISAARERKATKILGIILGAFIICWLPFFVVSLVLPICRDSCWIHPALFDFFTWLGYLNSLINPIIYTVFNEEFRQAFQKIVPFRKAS

[16] = AUC (0 to infinity) in Sprague-Dawley rat at 10 mg/kg, po by LC-MS/MS analysis; type: ADME, organism-based; design: dose 10 mg/kg, route oral, time infinity; conditions: in vivo
[17] = system: Mus musculus; assay: Antidepressant activity in ICR mouse assessed as immobility time at 30 mg/kg, iv administered 30 mins before testing by forced swim test (reference value: 159.1 sec); type: functional
[18] = AUC (0 to infinity) in Sprague-Dawley rat at 10 mg/kg, iv by LC-MS/MS analysis; type: ADME, organism-based; design: dose 10 mg/kg, route intravenous, time infinity; conditions: in vivo
[19] = molecular target: T3, 5-hydroxytryptamine receptor 2C (Homo sapiens, UniProt P28335); assay: Binding affinity to recombinant 5-HT2C receptor (unknown origin) after 1.5 hrs by radioligand displacement assay
T3 sequence (P28335 whole entry): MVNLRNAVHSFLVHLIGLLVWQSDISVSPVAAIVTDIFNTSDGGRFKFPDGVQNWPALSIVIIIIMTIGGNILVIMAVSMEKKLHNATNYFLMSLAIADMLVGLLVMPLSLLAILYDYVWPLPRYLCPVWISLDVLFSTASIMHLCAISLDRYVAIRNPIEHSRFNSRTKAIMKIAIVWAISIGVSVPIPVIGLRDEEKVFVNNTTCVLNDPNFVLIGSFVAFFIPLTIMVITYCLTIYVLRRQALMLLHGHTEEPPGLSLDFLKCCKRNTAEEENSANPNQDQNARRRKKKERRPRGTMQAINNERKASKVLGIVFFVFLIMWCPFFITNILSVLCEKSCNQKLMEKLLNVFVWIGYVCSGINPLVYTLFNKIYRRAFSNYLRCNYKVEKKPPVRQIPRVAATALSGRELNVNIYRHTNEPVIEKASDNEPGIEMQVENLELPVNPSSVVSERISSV

[20] = Tmax in Sprague-Dawley rat at 10 mg/kg, po by LC-MS/MS analysis; type: ADME, organism-based; conditions: in vivo
[21] = Terminal half life in Sprague-Dawley rat at 10 mg/kg, iv by LC-MS/MS analysis; type: ADME, organism-based; conditions: in vivo, read-out: beta t1/2
[22] = Plasma concentration in Sprague-Dawley rat at 10 mg/kg, iv after 2 hrs by LC-MS/MS analysis; type: ADME, organism-based
[23] = Terminal half life in Sprague-Dawley rat at 10 mg/kg, po by LC-MS/MS analysis; type: ADME, organism-based; conditions: in vivo, read-out: beta t1/2
[24] = molecular target: 5-hydroxytryptamine receptor 2A (Homo sapiens, UniProt P28223); assay: Binding affinity to recombinant 5-HT2A receptor (unknown origin) after 1.5 hrs by radioligand displacement assay
5-hydroxytryptamine receptor 2A, sequence (P28223 whole entry): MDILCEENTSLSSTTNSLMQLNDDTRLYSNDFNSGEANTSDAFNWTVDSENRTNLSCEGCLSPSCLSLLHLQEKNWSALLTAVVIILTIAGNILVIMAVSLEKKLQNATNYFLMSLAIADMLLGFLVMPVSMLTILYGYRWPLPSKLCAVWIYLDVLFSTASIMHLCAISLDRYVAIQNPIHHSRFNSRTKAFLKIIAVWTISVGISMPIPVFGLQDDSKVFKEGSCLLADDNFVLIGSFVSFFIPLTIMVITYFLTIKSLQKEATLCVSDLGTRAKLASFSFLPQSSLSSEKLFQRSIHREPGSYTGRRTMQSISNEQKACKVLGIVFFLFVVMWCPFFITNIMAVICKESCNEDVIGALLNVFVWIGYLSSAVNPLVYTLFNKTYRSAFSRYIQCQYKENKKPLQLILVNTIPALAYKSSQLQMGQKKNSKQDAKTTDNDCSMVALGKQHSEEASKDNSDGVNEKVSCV

[25] = Volume of distribution at steady state in Sprague-Dawley rat at 10 mg/kg, iv by LC-MS/MS analysis; type: ADME, organism-based; conditions: in vivo, read-out: Vdss
[26] = Mean residential time in Sprague-Dawley rat at 10 mg/kg, iv by LC-MS/MS analysis; type: ADME, organism-based; conditions: in vivo
[27] = Oral bioavailability in Sprague-Dawley rat at 10 mg/kg by LC-MS/MS analysis; type: ADME, organism-based; conditions: in vivo
[28] = AUC (0 to last) in Sprague-Dawley rat at 10 mg/kg, iv by LC-MS/MS analysis; type: ADME, organism-based; design: dose 10 mg/kg, time 0 - last, route intravenous; conditions: in vivo
[29] = molecular target: T2, 5-hydroxytryptamine receptor 7; assay: Antagonist activity at human 5-HT7 receptor expressed in HEK293 cells assessed as inhibition of 5-HT-induced cAMP production at 10 uM pretreated for 10 mins followed by stimulation with 5-HT for 30 mins by fluorescence analysis; type: functional, cell-based
[30] = molecular target: T4, 5-hydroxytryptamine receptor 1A (Homo sapiens, UniProt P08908); assay: Binding affinity to recombinant 5-HT1A receptor (unknown origin) after 1.5 hrs by radioligand displacement assay
T4 sequence (P08908 whole entry): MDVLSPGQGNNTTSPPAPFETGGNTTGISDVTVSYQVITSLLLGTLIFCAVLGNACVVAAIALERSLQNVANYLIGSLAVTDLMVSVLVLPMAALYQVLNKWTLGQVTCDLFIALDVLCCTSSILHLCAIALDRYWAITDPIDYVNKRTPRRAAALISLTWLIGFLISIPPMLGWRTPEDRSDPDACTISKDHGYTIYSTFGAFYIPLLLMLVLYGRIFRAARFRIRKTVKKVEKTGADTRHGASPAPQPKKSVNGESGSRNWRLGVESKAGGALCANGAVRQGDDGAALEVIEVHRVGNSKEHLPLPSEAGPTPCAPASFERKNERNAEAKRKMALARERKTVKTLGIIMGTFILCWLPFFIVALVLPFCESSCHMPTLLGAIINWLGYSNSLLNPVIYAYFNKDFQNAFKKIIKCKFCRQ

[31] = Metabolic stability in human liver microsomes assessed as compound remaining at 1 uM after 30 mins by LC-MS/MS in presence of NADPH; type: ADME; conditions: read-out: Stability
[32] = Drug uptake in Sprague-Dawley rat brain at 10 mg/kg, po after 2 hrs by LC-MS/MS analysis; type: ADME, organism-based; conditions: read-out: Drug uptake
[33] = Cmax in Sprague-Dawley rat at 10 mg/kg, po by LC-MS/MS analysis; type: ADME, organism-based; design: dose 10 mg/kg, route oral; conditions: in vivo

- inhibition [1]: 18%
- Ki [2]: 419 nM
- concentration at 2 h [3]: 70 ng/mL
- inhibition [4]: 31%
- clearance [5]: 114 mL/min/kg
- Ki [6]: 74 nM
- concentration at 2 h [7]: 268 ng/mL
- inhibition [8]: 34%
- Activity [9]: 22.2%
- Ki [10]: 74 nM
- Ki [11]: 845 nM
- AUC(0-t) [12]: 561 ng·h/mL
- Kp at 2 h [13]: 1.23
- Kp at 2 h [14]: 25.5
- Ki [15]: 1280 nM
- AUC(0-inf) [16]: 998 ng·h/mL
- AUC(0-inf) [18]: 1470 ng·h/mL
- Ki [19]: 588 nM
- Tmax [20]: 3.57 h
- half-life [21]: 3.32 h
- concentration at 2 h [22]: 210 ng/mL
- half-life [23]: 6.62 h
- Ki [24]: 1260 nM
- Vd [25]: 33.5 L/kg
- MRT [26]: 2.81 h
- bioavailability [27]: 67.8%
- AUC(0-t) [28]: 1170 ng·h/mL
- inhibition [29]: 75.2%
- Ki [30]: 549 nM
- remaining at 0.5 h, 1 µM [31]: 50.8%
- concentration at 2 h [32]: 1530 ng/mL
- Cmax [33]: 160 ng/mL
SMILES: COc1ccccc1N1CCN(CCCCCC(=O)n2c3ccccc3c3ccccc32)CC1.Cl
- Time [17]: 118.9 s
